# Measurements published in article PMC3529809 (Steroids, 2012).
# Entries after “also recorded” stand apart in the source; their conditions may differ.
# How the values were obtained:
# [1] = tested on: MCF-7 cells; settings: cited from earlier work
# [2] = target: ERβ; settings: expressed in COS-1 cells, cited from earlier work
# [3] = tested on: MCF-7 human breast cancer cells; test: Cell proliferation BrdU assay; type: cell-based; settings: 48 h BrdU; 10 nM E2, 5 µM sterols; Fig. 7
# [4] = tested on: ERα+ MCF-7 and triple-negative MDA-MB-231 and Hs578T breast cancer cells; settings: 100 µM; cited from earlier work
# [5] = target: T1, human ERβ (Homo sapiens, UniProt Q92731); test: [3H] E2 ligand binding competition; settings: IC50 for ERβ, competition with 30 nM [3H] E2, Fig. 6B
# T1 sequence (Q92731 whole entry): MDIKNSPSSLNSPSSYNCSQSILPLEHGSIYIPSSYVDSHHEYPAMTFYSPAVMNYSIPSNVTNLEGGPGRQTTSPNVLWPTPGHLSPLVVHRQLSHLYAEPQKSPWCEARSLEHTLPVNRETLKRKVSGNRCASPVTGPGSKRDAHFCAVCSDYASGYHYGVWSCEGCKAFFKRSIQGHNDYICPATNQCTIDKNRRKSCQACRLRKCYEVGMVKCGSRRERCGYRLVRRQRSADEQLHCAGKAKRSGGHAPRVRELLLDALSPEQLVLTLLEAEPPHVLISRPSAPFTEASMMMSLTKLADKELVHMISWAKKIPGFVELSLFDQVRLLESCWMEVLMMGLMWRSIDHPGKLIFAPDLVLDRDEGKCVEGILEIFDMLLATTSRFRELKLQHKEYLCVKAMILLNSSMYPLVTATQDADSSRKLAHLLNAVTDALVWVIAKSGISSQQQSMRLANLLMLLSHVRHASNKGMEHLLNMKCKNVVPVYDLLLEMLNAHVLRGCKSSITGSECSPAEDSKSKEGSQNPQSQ
# [6] = tested on: NMU and DMBA induced tumors of the mammary gland; settings: oral, rats; cited from earlier work
# [7] = tested on: ZR-75-1 breast cancer xenografts; settings: twice daily s.c. injections of 0.3 mg, nude mice; cited from earlier work
# [8] = tested on: TFF1 (pS2), PGR (PR), CTSD (cathepsin D) transcription; test: QRT-PCR of endogenous ER-target genes in ERα-transfected HEK-293 cells; type: cell-based, human; settings: 10 nM E2 or 5 µM sterol, 24 h, Fig. 5A
# [9] = tested on: diethylnitrosamine-induced hepatic tumors; settings: 0.6% in the diet, rats; cited from earlier work
# [10] = tested on: NRF1 (NRF-1) expression; test: QRT-PCR of NRF1 in ERβ-transfected HepG2 cells; type: cell-based, human; settings: 10 nM E2 or 5 µM sterol, 24 h, Fig. 5B
# [11] = target: T1, human ERβ; test: ERELUC transient transfection reporter assay, ERβ in HepG2 cells; type: cell-based; settings: 5 µM, 24 h, Fig. 1B; result in words
compound,measurement,setting,value
"C[C@]12CC[C@H](O)CC1=CC[C@@H]1[C@@H]2CC[C@]2(C)C(=O)CC[C@@H]12 [DHEA, 3β-hydroxy-androst-5-ene-17-one]",proliferation of MCF-7 cells,[1]; 1–10 µM concentrations,stimulated proliferation
same,MCF-7 cell growth,"[1]; DHEA 0.5 µM, ADIOL 2 nM",stimulated
same,MCF-7 cell proliferation,[1]; less than E2,increased cell proliferation
same,Kd,[2]; read-out: Kd for ERβ,~500 nM
same,Ki,[2]; read-out: Ki for ERβ,~500 nM
same,MCF-7 cell proliferation,[3],increased
same,"proliferation, cell cycle progression and migration",[4],inhibit
same,IC50,[5],500000 nM
same,effect in the mammary gland after chemical induction of tumors,[6],anti-carcinogenic effects
same,estrone-stimulated growth of xenografts,[7],suppressed
same,CTSD (cathepsin D) expression,[8],increased
same,PGR (PR) expression,[8],increased
same,TFF1 (pS2) expression,[8],increased
same,tumor cell growth,[9],inhibited tumor cell growth
same,NRF-1 mRNA expression,[10],statistically significant increase; also recorded: low induction
same,ERELUC activity in ERβ-expressing HepG2 cells,[11],significantly induced
